Measured values: the NIST ThermoML archive (doi:10.1007/s10765-006-0018-5)
± gives the expanded uncertainty stated by the source.

Key:
[1] = Liquid
[2] = refractive index (Na D-line) (dimensionless); conditions: 298.15 K; 101.33 kPa; Liquid; Standard Abbe refractometry

Compound | vapor or sublimation pressure ([1]; 410 K) | refractive index [2] | vapor or sublimation pressure ([1]; 389.5 K)
Cc1ccc(C)cc1 [1,4-dimethylbenzene] | 97.3 ± 1.6 kPa | 1.49325 ± 0.00075 | –
CCCCO [butan-1-ol] | – | 1.3973 ± 0.0008 | 97.3 ± 1.6 kPa
